Measurements published in patent US10280184B2, “Heterocyclic kinase inhibitors” (AbbVie Inc., priority 2014, dated 2019).

Biological target: BTK (Homo sapiens (Human), UniProt Q06187)
Test: In vitro BTK kinase activity measured by trFRET
Format: biochemical
Conditions: recombinant human catalytic domain (aa 393-659), 0.01 mM ATP; read-out: Btk enzyme IC50
Experimental: In Vitro BTK Kinase Activity Measured by Time-Resolved Fluorescence Resonance Energy Transfer (trFRET)
The in-house BTK corresponds to recombinant human catalytic domain (aa 393-659), which was expressed in SF9 cells with an N-terminal his tag and purified by immobilized metal affinity chromatography. BTK was mixed with peptide substrate (biotin-TYR1, Sequence: Biotin-(Ahx)-GAEEEIYAAFFA-COOH, 0.4 μM final) at varying inhibitor concentrations in reaction buffer: 50 mM MOPSO pH 6.5, 10 mM MgCl2, 2 mM MnCl2, 2.5 mM DTT, 0.01% BSA, 0.1 mM Na3VO4 and 0.01 mM ATP. After about 60 min incubation at rt, the reaction was quenched by addition of EDTA (final concentration: 100 mM) and developed by addition of detection reagents (final approximate concentrations: 30 mM HEPES pH 7.0, 0.06% BSA, 0.006% Tween-20, 0.24 M KF, 80 ng/mL PT66K (europium labeled anti-phosphotyrosine antibody cat #61T66KLB Cisbio, Bedford, Mass.) and 0.6 μg/mL SAXL (Phycolink streptavidin-allophycocyanin acceptor, cat #PJ25S, Prozyme, San Leandro, Calif.). The developed reaction was incubated in the dark for about 60 min at rt, then read via a time-resolved fluorescence detector (Rubystar, BMG) using a 337 nm laser for excitation and monitoring emission wavelength at 665 nm. Within the linear range of the assay, the observed signal at 665 nm was directly related to phosphorylated product and can be used to calculate the IC50 values.

Chain of BTK (Q06187 393-659): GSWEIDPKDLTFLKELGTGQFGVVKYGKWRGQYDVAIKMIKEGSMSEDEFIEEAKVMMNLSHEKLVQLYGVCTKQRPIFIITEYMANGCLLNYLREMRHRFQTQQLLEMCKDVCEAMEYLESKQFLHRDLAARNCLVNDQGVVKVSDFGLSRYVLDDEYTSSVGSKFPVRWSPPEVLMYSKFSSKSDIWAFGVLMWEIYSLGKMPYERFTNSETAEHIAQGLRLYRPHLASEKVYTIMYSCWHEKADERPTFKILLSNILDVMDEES

## C=CC(=O)Nc1cccc(-c2cn3ncnc3c(Nc3ccc4c(c3)NC(=O)CCC4)n2)c1 [F.1.5, N-(3-(8-((2-oxo-2,3,4,5-tetrahydro-1H-benzo[b]azepin-8-yl)amino)-[1,2,4]triazolo[1,5-a]pyrazin-6-yl)phenyl)acrylamide]
  IC50: < 100 nM

## C=CC(=O)Nc1cccc(-c2cn3ncnc3c(NC34CC(C3)C4)n2)c1 [F.1.2]
  IC50: 100 to 1000 nM

## Cn1ccc(Nc2cc([C@H]3CCC[C@H](NC#N)C3)cn3ncnc23)n1 [I.1.4, N—((1S,3S)-3-(8-((1-methyl-1H-pyrazol-3-yl)amino)-[1,2,4]triazolo[1,5-a]pyridin-6-yl)cyclohexyl)cyanamide]
  IC50: 100 to 1000 nM

## C=CC(=O)N1CC[C@@H](c2cc(Nc3cc4n(n3)CCN(C)C4)c3ncnn3c2)C1 [F.1.39]
  IC50: < 100 nM

## C=CC(=O)N1CC(c2cc(Nc3cc4n(n3)CCOC4)c3ncnn3c2)C1 [F.1.42]
  IC50: < 100 nM

## C=CC(=O)N1CC[C@H](c2cn3ncnc3c(Nc3cnn(C)c3)n2)C1 (single isomer, unassigned) [Example 6]
  IC50: < 100 nM

## C=CC(=O)N[C@@H]1CC[C@H](c2cc(Nc3ccn(C)n3)c3ncnn3c2)C1 (single isomer, unassigned) [Example 7]
  IC50: < 100 nM

## C=CC(=O)N1CCC[C@@H](c2cc(Nc3cc4n(n3)CCN(C)C4)c3ncnn3c2)C1 [F.1.40]
  IC50: < 100 nM

## C=CC(=O)N1CCC(c2cn3ncnc3c(Nc3ccc(OC)c(OC)c3)n2)C1 (stereo not drawn) [F.1.8]
  IC50: 100 to 1000 nM

## C=CC(=O)N1CCC(c2cn3ncnc3c(Nc3cnn(C)c3)n2)C1 (stereo not drawn) [F.1.22, 1-(3-(8-((1-methyl-1H-pyrazol-4-yl)amino)-[1,2,4]triazolo[1,5-a]pyrazin-6-yl)pyrrolidin-1-yl)prop-2-en-1-one]
  IC50: < 100 nM

## C=CC(=O)N[C@H]1CCC[C@H](c2cc(Nc3ccn(C)n3)c3ncnn3c2)C1 [Example F1.36]
  IC50: 100 to 1000 nM

## C=CC(=O)N1CC[C@H](c2cn3ncnc3c(Nc3ccc(OC)c(OC)c3)n2)C1 [F.1.11]
  IC50: 100 to 1000 nM

## C=CC(=O)N1CC[C@H](c2cc(Nc3cc4n(n3)CCOC4)c3ncnn3c2)C1 [Example 4, 1-{(R)-3-[8-(6,7-Dihydro-4H-pyrazolo[5,1-c][1,4]oxazin-2-ylamino)-[1,2,4]triazolo[1,5-a]pyridin-6-yl]-pyrrolidin-1-yl}-propenone]
  IC50: < 100 nM

## C=CC(=O)N1CC[C@@H](c2cn3ccnc3c(Nc3ccc4c(c3)NC(=O)CCC4)n2)C1 [F.1.9, (R)-8-((6-(1-acryloylpyrrolidin-3-yl)imidazo[1,2-a]pyrazin-8-yl)amino)-4,5-dihydro-1H-benzo[b]azepin-2(3H)-one]
  IC50: < 100 nM

## C=CC(=O)N1CCCC(c2cn3ncnc3c(Nc3ccc4c(c3)NC(=O)CCC4)n2)C1 (stereo not drawn) [F.1.4, 8-((6-(1-acryloylpiperidin-3-yl)-[1,2,4]triazolo[1,5-a]pyrazin-8-yl)amino)-4,5-dihydro-1H-benzo[b]azepin-2(3H)-one]
  IC50: < 100 nM

## C=CC(=O)N[C@H]1CC[C@@H](c2cc(Nc3ccn(C)n3)c3ncnn3c2)C1 [Example F1.34]
  IC50: 100 to 1000 nM

## C=CC(=O)N1CCC[C@@H](c2cc(Nc3cc4n(n3)CCOC4)c3ncnn3c2)C1 (single isomer, unassigned) [Example F1.24]
  IC50: 1000 to 50000 nM

## C=CC(=O)N1CCC(c2cc(Nc3ccc4c(c3)NC(=O)CCC4)c3ncnn3c2)C1 (stereo not drawn) [F.1.15, 8-((6-(1-acryloylpyrrolidin-3-yl)-[1,2,4]triazolo[1,5-a]pyridin-8-yl)amino)-4,5-dihydro-1H-benzo[b]azepin-2(3H)-one]
  IC50: 100 to 1000 nM

## C=CC(=O)N1CC[C@@H](c2cc(Nc3cc4n(n3)CCOC4)c3ncnn3c2)C1 [Example F1.33, (S)-1-(3-(8-((6,7-dihydro-4H-pyrazolo[5,1-c][1,4]oxazin-2-yl)amino)-[1,2,4]triazolo[1,5-a]pyridin-6-yl)pyrrolidin-1-yl)prop-2-en-1-one]
  IC50: 1000 to 50000 nM

## C=CC(=O)N1CCC[C@H](c2cc(Nc3cc4n(n3)CCOC4)c3ncnn3c2)C1 (single isomer, unassigned) [Example 5]
  IC50: < 100 nM

## C=CC(=O)N1CCCC(c2cc(Nc3nc(C(C)C)no3)c3ncnn3c2)C1 (stereo not drawn) [Example F1.31, 1-(3-(8-((3-isopropyl-1,2,4-oxadiazol-5-yl)amino)-[1,2,4]triazolo[1,5-a]pyridin-6-yl)piperidin-1-yl)prop-2-en-1-one]
  IC50: 1000 to 50000 nM

## C=CC(=O)N1CCC(c2cc(Nc3cc4n(n3)CCOC4)c3nccn3n2)C1 (stereo not drawn) [F.1.41, 1-(3-(8-((6,7-dihydro-4H-pyrazolo[5,1-c][1,4]oxazin-2-yl)amino)imidazo[1,2-b]pyridazin-6-yl)pyrrolidin-1-yl)prop-2-en-1-one]
  IC50: < 100 nM

## C=CC(=O)N1CCC(c2cn3ncnc3c(Nc3ccc(N4CCOCC4)nc3)n2)C1 (stereo not drawn) [F.1.19, 1-(3-(8-((6-morpholinopyridin-3-yl)amino)-[1,2,4]triazolo[1,5-a]pyrazin-6-yl)pyrrolidin-1-yl)prop-2-en-1-one]
  IC50: 100 to 1000 nM

## C=CC(=O)N1CC[C@@H](c2cn3ncnc3c(Nc3ccc(OC)c(OC)c3)n2)C1 [F.1.112]
  IC50: 1000 to 50000 nM

## C=CC(=O)N1CCC(c2cn3ncnc3c(Nc3ccc4c(c3)NC(=O)CCC4)n2)C1 (stereo not drawn) [F.1, 8-((6-(1-acryloylpyrrolidin-3-yl)-[1,2,4]triazolo[1,5-a]pyrazin-8-yl)amino)-4,5-dihydro-1H-benzo[b]azepin-2(3H)-one]
  IC50: < 100 nM

## C=CC(=O)N1CCCC(c2cc(Nc3ccn(C)n3)c3ncnn3c2)C1 (stereo not drawn) [F.1.21, 1-(3-(8-((1-methyl-1H-pyrazol-3-yl)amino)-[1,2,4]triazolo[1,5-a]pyridin-6-yl)piperidin-1-yl)prop-2-en-1-one]
  IC50: 100 to 1000 nM

## C=CC(=O)N1CC[C@H](c2cn3ccnc3c(Nc3ccc4c(c3)NC(=O)CCC4)n2)C1 [F.1.10, (S)-8-((6-(1-acryloylpyrrolidin-3-yl)imidazo[1,2-a]pyrazin-8-yl)amino)-4,5-dihydro-1H-benzo[b]azepin-2(3H)-one]
  IC50: 100 to 1000 nM

## C=CC(=O)N1CCC(c2cn3ncnc3c(Nc3ccn(C)n3)n2)C1 (stereo not drawn) [F.1.23, 1-(3-(8-((1-methyl-1H-pyrazol-3-yl)amino)-[1,2,4]triazolo[1,5-a]pyrazin-6-yl)pyrrolidin-1-yl)prop-2-en-1-one]
  IC50: 1000 to 50000 nM

## C=CC(=O)N1CCC(c2cn3ncnc3c(NC)n2)C1 (stereo not drawn) [F.1.16, 1-(3-(8-(methylamino)-[1,2,4]triazolo[1,5-a]pyrazin-6-yl)pyrrolidin-1-yl)prop-2-en-1-one]
  IC50: 1000 to 50000 nM

## C=CC(=O)N1CCCC(c2cc(Nc3nc(C)no3)c3ncnn3c2)C1 (stereo not drawn) [Example F1.32, 1-(3-(8-((3-methyl-1,2,4-oxadiazol-5-yl)amino)-[1,2,4]triazolo[1,5-a]pyridin-6-yl)piperidin-1-yl)prop-2-en-1-one]
  IC50: 1000 to 50000 nM

## Cn1cc(Nc2nc(C3CCN(C#N)C3)cn3ncnc23)cn1 (stereo not drawn) [I.1.2]
  IC50: 100 to 1000 nM

## C=CC(=O)Nc1ccccc1-c1cn2ncnc2c(NC23CC(C2)C3)n1 [F.1.3]
  IC50: 1000 to 50000 nM

## C=CC(=O)N1CCCC(c2cc(Nc3cc4n(n3)CCOC4)c3ncnn3c2)C1 (stereo not drawn) [Example F1.30, 1-(3-(8-((6,7-dihydro-4H-pyrazolo[5,1-c][1,4]oxazin-2-yl)amino)-[1,2,4]triazolo[1,5-a]pyridin-6-yl)piperidin-1-yl)prop-2-en-1-one]
  IC50: 100 to 1000 nM

## C=CC(=O)N1CCC(c2cn3ncnc3c(Nc3ccc4c(c3)NC(=O)CC4)n2)C1 (stereo not drawn) [F.1.13, 7-((6-(1-acryloylpyrrolidin-3-yl)-[1,2,4]triazolo[1,5-a]pyrazin-8-yl)amino)-3,4-dihydroquinolin-2(1H)-one]
  IC50: 100 to 1000 nM

## C=CC(=O)N[C@H]1CC[C@@H](c2cc(Nc3cc4n(n3)CCOC4)c3ncnn3c2)C1 (single isomer, unassigned) [Example 8 (1S,3R)]
  IC50: < 100 nM

## Cn1ccc(Nc2cc(C3CCCN(C#N)C3)cn3ncnc23)n1 (stereo not drawn) [I.1.1, 3-(8-((1-methyl-1H-pyrazol-3-yl)amino)-[1,2,4]triazolo[1,5-a]pyridin-6-yl)piperidine-1-carbonitrile]
  IC50: 100 to 1000 nM

## C=CC(=O)NCc1cccc(-c2cn3ncnc3c(Nc3ccc(N4CCOCC4)cc3)n2)c1 [C.1.1]
  IC50: 1000 to 50000 nM

## C=CC(=O)N[C@@H]1CC[C@H](c2cc(Nc3cc4n(n3)CCOC4)c3ncnn3c2)C1 (single isomer, unassigned) [Example 8 (1R,3S)]
  IC50: < 100 nM

## C=CC(=O)N1CC[C@@H](c2cn3ncnc3c(Nc3cnn(C)c3)n2)C1 (single isomer, unassigned) [Example F1.25]
  IC50: 1000 to 50000 nM

## C=CC(=O)N[C@H]1CC[C@@H](c2cc(Nc3ccc(N4CCOCC4)cn3)c3ncnn3c2)C1 (single isomer, unassigned) [Example 9 (1S,3R)]
  IC50: 100 to 1000 nM

## Cn1ccc(Nc2cc(C3CCN(C#N)C3)cn3ncnc23)n1 (stereo not drawn) [I.1, 3-(8-((1-methyl-1H-pyrazol-3-yl)amino)-[1,2,4]triazolo[1,5-a]pyridin-6-yl)pyrrolidine-1-carbonitrile]
  IC50: 100 to 1000 nM

## C=CC(=O)N[C@@H]1CC[C@H](c2cc(Nc3ccc(N4CCOCC4)cn3)c3ncnn3c2)C1 (single isomer, unassigned) [Example 9 (1R,3S)]
  IC50: < 100 nM
